The source of these data is ChEMBL document CHEMBL4804281, “STK4 inhibitors for treatment of hematologic malignancies” (2020).

Each structure is given as a SMILES string. Active and inactive are the calls of the source. The calls are words filed in the database; no cut-off is given here.

Experiment [1] concerns the target Serine/threonine-protein kinase 26 (Homo sapiens) (UniProt Q9P289). Kind of experiment: Inhibition of MST4 in human NCI-H929 cells at 10 uM by mass spectroscopic analysis relative to control. Format: cell-based.
Experiment [2] concerns MM1.S. Nature of the experiment: Downregulation of phosphorylated-MOB1 protein level in human MM1.S cells at 1 to 10 uM measured after 6 hrs by Western blot analysis. Format: functional, cell-based. The settings on record: dose 1-10 µM. Background: In western blotting, separated proteins are transferred to a membrane and probed.
Experiment [3] deals with RAC-gamma serine/threonine-protein kinase (Homo sapiens) (UniProt Q9Y243). Kind of experiment: Inhibition of AKT3 in human NCI-H929 cells at 10 uM by mass spectroscopic analysis relative to control. Format: cell-based.
In experiment [4] the target is Serine/threonine-protein kinase 25 (Homo sapiens) (UniProt O00506). Kind of experiment: Inhibition of YSK1 in human NCI-H929 cells at 10 uM by mass spectroscopic analysis relative to control. Format: cell-based.
In experiment [5] the target is Rho-associated protein kinase 1 (Homo sapiens) (UniProt Q13464). Nature of the experiment: Inhibition of ROCK1 in human NCI-H929 cells at 10 uM by mass spectroscopic analysis relative to control. Format: cell-based.
The test system of experiment [6] is MM1.S. Kind of experiment: Upregulation of YAP1 protein level in human MM1.S cells at 1 uM measured after 16 hrs by Western blot analysis. Format: functional, cell-based.
The target in experiment [7] is Microtubule-associated serine/threonine-protein kinase 2 (Homo sapiens) (UniProt Q6P0Q8). Kind of experiment: Inhibition of MAST2 in human NCI-H929 cells at 10 uM by mass spectroscopic analysis relative to control. It counts as cell-based.
For experiment [8], the target named is Cyclin-dependent kinase 19 (Homo sapiens) (UniProt Q9BWU1). Kind of experiment: Inhibition of CDK11 in human NCI-H929 cells at 10 uM by mass spectroscopic analysis relative to control. Format: cell-based.
Experiment [9] concerns the target Cyclin-dependent kinase 11B (Homo sapiens) (UniProt P21127). Nature of the experiment: Inhibition of PITSLRE in human NCI-H929 cells at 10 uM by mass spectroscopic analysis relative to control. Format: cell-based.
The target of experiment [10] is T1, NUAK family SNF1-like kinase 1 (Homo sapiens) (UniProt O60285).
T1 sequence (whole entry): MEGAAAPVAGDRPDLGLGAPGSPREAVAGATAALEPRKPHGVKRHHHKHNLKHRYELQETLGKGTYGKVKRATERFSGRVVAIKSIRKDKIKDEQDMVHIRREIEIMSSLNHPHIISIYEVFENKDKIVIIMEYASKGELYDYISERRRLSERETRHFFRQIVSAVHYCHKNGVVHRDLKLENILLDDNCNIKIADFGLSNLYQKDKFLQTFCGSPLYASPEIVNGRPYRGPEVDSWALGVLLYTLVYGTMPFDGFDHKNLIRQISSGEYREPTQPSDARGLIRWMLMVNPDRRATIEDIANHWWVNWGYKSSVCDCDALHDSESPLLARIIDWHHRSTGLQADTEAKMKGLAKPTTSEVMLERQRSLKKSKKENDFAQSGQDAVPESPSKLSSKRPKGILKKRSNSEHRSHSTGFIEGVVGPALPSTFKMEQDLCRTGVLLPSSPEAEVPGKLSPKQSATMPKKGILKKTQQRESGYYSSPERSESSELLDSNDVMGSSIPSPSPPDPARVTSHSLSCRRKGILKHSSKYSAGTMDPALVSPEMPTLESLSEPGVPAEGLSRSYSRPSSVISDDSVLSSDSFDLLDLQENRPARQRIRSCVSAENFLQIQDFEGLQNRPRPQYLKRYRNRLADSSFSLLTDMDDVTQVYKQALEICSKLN
Nature of the experiment: Inhibition of NuaK1 in human NCI-H929 cells at 10 uM by mass spectroscopic analysis relative to control. Format: cell-based.

In experiment [11] the target is Serine/threonine-protein kinase MARK1 (Homo sapiens) (UniProt Q9P0L2). Kind of experiment: Inhibition of MARK1 in human NCI-H929 cells at 10 uM by mass spectroscopic analysis relative to control. Format: cell-based.
For experiment [12], the target named is Cyclin-dependent kinase 8 (Homo sapiens) (UniProt P49336). Kind of experiment: Inhibition of CDK8 in human NCI-H929 cells at 10 uM by mass spectroscopic analysis relative to control. Format: cell-based.
The target of experiment [13] is Bone morphogenetic protein receptor type-1B (Homo sapiens) (UniProt O00238). Kind of experiment: Inhibition of BMPR1B in human NCI-H929 cells at 10 uM by mass spectroscopic analysis relative to control. It counts as cell-based.
The target in experiment [14] is T2, Tyrosine-protein kinase Mer (Homo sapiens) (UniProt Q12866).
T2 sequence (whole entry): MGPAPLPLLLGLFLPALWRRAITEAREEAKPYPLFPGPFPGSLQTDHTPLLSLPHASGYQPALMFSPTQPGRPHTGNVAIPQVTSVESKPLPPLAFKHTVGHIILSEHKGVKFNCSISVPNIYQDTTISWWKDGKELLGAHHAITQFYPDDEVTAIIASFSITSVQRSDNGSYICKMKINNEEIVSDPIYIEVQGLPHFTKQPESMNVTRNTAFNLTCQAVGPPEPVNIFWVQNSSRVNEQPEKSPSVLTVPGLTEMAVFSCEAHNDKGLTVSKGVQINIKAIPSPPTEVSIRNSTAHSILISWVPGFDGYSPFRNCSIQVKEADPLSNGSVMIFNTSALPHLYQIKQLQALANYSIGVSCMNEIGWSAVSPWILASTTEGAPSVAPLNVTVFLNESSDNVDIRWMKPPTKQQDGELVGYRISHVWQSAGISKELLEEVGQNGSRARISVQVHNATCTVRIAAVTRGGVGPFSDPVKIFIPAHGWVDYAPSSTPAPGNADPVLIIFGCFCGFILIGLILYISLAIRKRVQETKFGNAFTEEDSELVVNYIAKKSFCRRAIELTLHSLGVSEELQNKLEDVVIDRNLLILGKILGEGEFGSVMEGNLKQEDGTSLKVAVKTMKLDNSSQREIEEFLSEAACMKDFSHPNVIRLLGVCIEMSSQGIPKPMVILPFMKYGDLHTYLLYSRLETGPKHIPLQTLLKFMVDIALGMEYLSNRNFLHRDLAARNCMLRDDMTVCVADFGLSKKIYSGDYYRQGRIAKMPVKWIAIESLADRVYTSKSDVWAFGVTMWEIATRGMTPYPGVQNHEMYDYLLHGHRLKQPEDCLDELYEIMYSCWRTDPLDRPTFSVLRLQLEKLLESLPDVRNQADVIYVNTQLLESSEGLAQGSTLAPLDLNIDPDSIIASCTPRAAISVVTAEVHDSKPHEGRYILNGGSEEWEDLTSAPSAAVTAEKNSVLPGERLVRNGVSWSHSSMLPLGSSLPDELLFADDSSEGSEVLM
Kind of experiment: Inhibition of MER in human NCI-H929 cells at 10 uM by mass spectroscopic analysis relative to control. It counts as cell-based.

The target in experiment [15] is Tyrosine-protein kinase ABL1 (Homo sapiens) (UniProt P00519). Kind of experiment: Inhibition of ABL in human NCI-H929 cells at 10 uM by mass spectroscopic analysis relative to control. It counts as cell-based.
For experiment [16], the target named is Calcium/calmodulin-dependent protein kinase kinase 2 (Homo sapiens) (UniProt Q96RR4). Kind of experiment: Inhibition of CAMKK2 in human NCI-H929 cells at 10 uM by mass spectroscopic analysis relative to control. It counts as cell-based.
The target in experiment [17] is 5'-AMP-activated protein kinase catalytic subunit alpha-2 (Homo sapiens) (UniProt P54646). Nature of the experiment: Inhibition of AMPKa2 in human NCI-H929 cells at 10 uM by mass spectroscopic analysis relative to control. Format: cell-based.
5'-AMP-activated protein kinase catalytic subunit alpha-2 (Homo sapiens), sequence (P54646 whole entry, looked up): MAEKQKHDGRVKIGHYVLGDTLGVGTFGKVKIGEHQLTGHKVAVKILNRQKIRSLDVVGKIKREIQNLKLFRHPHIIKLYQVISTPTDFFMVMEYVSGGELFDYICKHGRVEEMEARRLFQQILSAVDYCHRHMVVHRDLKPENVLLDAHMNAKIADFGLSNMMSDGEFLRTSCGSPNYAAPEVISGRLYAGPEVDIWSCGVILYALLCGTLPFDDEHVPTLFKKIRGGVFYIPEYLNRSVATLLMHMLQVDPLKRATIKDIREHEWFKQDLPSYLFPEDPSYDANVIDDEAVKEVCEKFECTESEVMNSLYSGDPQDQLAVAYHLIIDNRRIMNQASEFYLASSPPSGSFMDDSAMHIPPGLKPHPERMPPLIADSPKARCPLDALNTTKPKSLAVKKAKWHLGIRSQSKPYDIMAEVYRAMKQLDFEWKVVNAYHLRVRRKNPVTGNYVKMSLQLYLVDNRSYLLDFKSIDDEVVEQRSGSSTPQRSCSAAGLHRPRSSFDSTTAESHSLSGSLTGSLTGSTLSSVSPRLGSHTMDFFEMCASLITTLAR

Serine/threonine-protein kinase MARK1 (Homo sapiens), sequence (Q9P0L2 whole entry, looked up): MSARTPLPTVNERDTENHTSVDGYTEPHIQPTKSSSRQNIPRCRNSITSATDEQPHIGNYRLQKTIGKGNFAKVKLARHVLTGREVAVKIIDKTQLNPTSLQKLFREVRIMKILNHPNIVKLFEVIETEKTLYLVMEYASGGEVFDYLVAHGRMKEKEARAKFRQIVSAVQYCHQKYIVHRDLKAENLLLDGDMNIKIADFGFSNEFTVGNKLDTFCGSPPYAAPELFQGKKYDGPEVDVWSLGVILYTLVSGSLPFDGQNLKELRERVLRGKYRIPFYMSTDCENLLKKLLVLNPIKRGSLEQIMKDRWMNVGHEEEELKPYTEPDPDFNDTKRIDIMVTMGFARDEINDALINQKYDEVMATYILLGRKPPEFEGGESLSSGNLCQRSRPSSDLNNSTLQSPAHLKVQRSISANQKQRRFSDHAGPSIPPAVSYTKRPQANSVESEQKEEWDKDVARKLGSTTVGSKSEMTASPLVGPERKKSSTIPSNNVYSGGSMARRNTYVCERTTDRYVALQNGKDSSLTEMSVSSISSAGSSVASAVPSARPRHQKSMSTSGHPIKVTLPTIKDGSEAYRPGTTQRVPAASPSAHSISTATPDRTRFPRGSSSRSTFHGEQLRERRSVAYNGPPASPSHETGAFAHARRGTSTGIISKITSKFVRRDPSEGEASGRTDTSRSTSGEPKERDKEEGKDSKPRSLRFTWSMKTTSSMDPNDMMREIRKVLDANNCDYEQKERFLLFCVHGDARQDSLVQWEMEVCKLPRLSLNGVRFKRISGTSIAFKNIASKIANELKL
Microtubule-associated serine/threonine-protein kinase 2 (Homo sapiens), sequence (Q6P0Q8 whole entry): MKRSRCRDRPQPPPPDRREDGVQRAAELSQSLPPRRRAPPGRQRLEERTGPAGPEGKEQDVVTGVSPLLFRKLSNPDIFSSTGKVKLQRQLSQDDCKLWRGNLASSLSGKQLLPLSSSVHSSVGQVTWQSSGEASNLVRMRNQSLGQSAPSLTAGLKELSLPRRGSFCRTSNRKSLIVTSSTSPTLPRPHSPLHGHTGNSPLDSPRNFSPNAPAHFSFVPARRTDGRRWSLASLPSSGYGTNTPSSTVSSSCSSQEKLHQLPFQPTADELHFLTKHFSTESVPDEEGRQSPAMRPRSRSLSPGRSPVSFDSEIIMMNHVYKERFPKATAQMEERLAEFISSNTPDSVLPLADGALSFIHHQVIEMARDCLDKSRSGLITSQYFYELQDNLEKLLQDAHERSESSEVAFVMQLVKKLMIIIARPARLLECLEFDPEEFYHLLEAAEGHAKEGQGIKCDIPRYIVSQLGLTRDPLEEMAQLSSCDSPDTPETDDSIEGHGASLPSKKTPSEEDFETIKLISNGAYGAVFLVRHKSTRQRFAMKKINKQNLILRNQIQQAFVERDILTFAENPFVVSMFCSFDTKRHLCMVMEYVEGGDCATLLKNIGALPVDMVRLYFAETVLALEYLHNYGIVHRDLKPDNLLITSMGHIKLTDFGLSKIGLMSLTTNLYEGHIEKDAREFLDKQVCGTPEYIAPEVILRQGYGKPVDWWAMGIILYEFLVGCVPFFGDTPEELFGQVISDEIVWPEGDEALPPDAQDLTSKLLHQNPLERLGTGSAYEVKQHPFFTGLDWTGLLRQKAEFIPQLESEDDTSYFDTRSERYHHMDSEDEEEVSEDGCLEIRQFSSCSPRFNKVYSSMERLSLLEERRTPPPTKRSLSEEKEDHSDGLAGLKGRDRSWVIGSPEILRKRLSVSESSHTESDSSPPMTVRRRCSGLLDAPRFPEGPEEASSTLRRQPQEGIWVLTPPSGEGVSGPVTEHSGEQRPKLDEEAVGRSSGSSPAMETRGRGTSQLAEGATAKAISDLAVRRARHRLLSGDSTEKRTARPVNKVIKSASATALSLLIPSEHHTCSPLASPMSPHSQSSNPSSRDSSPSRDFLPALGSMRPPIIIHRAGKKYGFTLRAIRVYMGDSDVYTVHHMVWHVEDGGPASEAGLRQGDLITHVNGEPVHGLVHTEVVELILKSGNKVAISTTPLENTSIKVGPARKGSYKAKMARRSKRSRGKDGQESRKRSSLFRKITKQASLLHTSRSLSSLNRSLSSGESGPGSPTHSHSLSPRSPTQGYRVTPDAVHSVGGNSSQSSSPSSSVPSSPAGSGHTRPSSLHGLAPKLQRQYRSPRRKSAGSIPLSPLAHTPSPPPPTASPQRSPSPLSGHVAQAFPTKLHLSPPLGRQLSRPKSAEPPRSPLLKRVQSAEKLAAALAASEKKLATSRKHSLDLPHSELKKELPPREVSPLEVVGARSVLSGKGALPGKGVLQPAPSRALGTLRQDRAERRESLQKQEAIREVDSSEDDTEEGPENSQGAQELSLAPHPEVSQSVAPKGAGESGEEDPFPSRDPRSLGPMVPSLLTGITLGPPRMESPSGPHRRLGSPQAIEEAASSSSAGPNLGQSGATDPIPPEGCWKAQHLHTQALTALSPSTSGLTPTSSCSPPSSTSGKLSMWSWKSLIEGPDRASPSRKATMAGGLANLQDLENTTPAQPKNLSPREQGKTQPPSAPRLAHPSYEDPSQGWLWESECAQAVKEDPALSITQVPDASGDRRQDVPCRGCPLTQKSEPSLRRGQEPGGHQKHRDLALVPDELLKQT
Cyclin-dependent kinase 11B (Homo sapiens), sequence (P21127 whole entry): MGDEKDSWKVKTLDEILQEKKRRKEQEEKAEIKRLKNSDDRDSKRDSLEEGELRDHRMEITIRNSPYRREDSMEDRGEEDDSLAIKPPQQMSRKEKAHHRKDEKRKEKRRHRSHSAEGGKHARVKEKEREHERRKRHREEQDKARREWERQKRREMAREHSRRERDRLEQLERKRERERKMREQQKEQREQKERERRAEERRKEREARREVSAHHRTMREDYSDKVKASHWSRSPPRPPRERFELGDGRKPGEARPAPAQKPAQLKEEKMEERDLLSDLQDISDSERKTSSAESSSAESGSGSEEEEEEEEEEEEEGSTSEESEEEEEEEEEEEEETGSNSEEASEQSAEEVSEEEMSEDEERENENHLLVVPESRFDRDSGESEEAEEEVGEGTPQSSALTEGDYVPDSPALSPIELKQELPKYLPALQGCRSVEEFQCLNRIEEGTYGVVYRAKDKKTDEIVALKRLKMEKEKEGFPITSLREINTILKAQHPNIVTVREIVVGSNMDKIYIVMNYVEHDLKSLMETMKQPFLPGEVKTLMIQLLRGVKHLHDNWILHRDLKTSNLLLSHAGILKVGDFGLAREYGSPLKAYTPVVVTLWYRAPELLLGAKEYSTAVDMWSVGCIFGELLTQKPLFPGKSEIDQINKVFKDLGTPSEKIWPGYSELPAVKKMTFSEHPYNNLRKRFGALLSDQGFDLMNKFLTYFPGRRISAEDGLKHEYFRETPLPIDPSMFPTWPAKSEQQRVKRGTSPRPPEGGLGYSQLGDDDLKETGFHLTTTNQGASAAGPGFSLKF
Cyclin-dependent kinase 19 (Homo sapiens), sequence (Q9BWU1 whole entry): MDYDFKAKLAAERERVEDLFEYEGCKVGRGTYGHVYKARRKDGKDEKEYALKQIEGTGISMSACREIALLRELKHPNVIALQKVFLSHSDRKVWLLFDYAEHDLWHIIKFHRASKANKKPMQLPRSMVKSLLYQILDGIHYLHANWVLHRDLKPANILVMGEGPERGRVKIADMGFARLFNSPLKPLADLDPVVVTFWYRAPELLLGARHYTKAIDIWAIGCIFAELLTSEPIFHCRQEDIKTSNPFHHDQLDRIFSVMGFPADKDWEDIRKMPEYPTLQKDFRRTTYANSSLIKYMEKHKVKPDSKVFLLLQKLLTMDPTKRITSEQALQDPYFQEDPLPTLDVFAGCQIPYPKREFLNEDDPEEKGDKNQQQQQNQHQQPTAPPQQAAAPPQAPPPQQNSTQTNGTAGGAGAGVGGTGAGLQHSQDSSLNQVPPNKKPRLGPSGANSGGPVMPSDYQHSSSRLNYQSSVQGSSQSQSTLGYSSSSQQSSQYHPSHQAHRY
Bone morphogenetic protein receptor type-1B (Homo sapiens), sequence (O00238 whole entry): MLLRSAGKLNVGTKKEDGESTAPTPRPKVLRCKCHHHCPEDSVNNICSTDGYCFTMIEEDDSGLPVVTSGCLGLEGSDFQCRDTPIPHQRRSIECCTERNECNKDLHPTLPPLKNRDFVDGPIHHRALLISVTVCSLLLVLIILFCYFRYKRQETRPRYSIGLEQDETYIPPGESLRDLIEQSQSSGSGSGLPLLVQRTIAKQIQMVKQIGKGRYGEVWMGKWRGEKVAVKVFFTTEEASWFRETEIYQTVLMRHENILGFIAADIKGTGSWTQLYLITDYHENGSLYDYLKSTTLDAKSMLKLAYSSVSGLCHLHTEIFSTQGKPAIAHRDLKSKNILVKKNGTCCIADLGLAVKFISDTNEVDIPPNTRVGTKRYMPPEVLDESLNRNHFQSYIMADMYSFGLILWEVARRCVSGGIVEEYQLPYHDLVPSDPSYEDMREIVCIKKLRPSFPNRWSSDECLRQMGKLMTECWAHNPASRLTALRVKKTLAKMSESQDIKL

As to `Nc1ncc(-c2cccc([N+](=O)[O-])c2F)cc1-c1ccc2c(c1)CCNC2=O`, the inhibition in experiment [1], in experiment [3], in [4] and in [5] was 0% in each case. The result in the experiment on MM1.S [2] and in the experiment with MM1.S [6] was Active.

For `Nc1ncc(-c2ccc(NS(=O)(=O)C3CC3)cc2OC2CCCCC2)cc1-c1ccc2c(c1)CCNC2=O`, the inhibition was 0% in experiment [7]; 0% in [8]; 0% in experiment [9]; 50% in experiment [10]; 0% in [11]; 0% in experiment [12]. For the same molecule, the inhibition in experiment [13] is above 90%; in [14], 0%; in experiment [15] it was 0%.

Take `CN(C1CC1)S(=O)(=O)c1ccc(-c2cnc(N)c(-c3ccc4c(c3)CCNC4=O)c2)c(F)c1`: the inhibition is below 90% in experiment [1]; 0% in [3]; 0% in experiment [8]; 0% in [9]; 50% in experiment [16]; below 90% in experiment [4]. For the same molecule, the inhibition in [10] was 50%; in experiment [11] it was 0%; in experiment [12], 0%; in experiment [5], 0%; in experiment [15], 0%; in experiment [17], 0%. The result in the experiment with MM1.S [2] and in the experiment on MM1.S [6] was Active.

For the molecule `Nc1ncc(-c2ccc(NS(=O)(=O)C3CC3)cc2F)cc1-c1ccc2c(c1)CCNC2=O`, the inhibition in experiment [1] was below 75%; in [7], 0%; in [8], 0%; in experiment [9] it was 0%; in experiment [4], below 75%; in experiment [11], 0%. Also, the inhibition in experiment [12], in experiment [13], in experiment [14], in experiment [15] and in experiment [17] was 0% throughout.

As for `Nc1ncc(-c2cccc3ncsc23)cc1-c1ccc2c(c1)CCNC2=O`, the inhibition in [1] is 0%; in [3] it was 0%; in experiment [8], 50%; in [9], 0%; in [16], 50%; in [4], 0%. In addition, the inhibition in experiment [10] was below 90%; in experiment [11], 0%; in [12], 50%; in experiment [5], 0%; in experiment [15], 50%; in [17], 0%. In addition, the result with MM1.S [2] and in the experiment on MM1.S [6] was Active.

On to `COc1cc(NS(=O)(=O)C2CC2)ccc1-c1cnc(N)c(-c2ccc3c(c2)CCNC3=O)c1`, for which the inhibition in experiment [7], in experiment [9], in [16], in [4], in [11] and in experiment [12] was 0% in each case. Moreover, the inhibition was 75% in experiment [13], 0% in [14], 0% in [15] and 0% in experiment [17].

A word on the inhibition: it is the share of the control response that was lost under treatment.
